What was measured:
[1] = tested on: EcR1: Penicillinase-Producing Escherichia coli without Associated Resistance; test: Antibiogram, MIC by the VITEK 2 system; format: cell-based; conditions: Table A1, category from MIC
Experimental: (§1) 5. Identification and Antibiogram 5.1 EcR1: Penicillinase-Producing Escherichia coli without Associated Resistance
(§2) The bacterial and antibiogram identification is carried out by the VITEK 2 system (bioMérieux) and by the disk diffusion technique.

[2] = tested on: ESBL-producing strain of Escherichia coli (EcR3); test: Chessboard technique: MICs alone and synergism of Cx1 combinations; format: cell-based; conditions: antibiotic used alone; second figure of the cell; n = 4
Excerpt: (§3) Three reference strains were used, corresponding to those studied for the MICs and MBCs (Minimum Bactericidal Concentration): Escherichia coli ATCC 25922, Staphylococcus aureus ATCC 29213, Pseudomonas aeruginosa ATCC 27853. For each of these strains 3 corresponding clinical isolates were chosen, having various antibiotic-resistance profiles, routinely used in standard fashion: • EcR1, EcR2, EcR3; • SaR1, SaR3, SaR4; • PaR2, PaR3, PaR5.
(§4) 1.3. Procedure: Chessboard Technique
(§5) The bacterial suspension is transferred to a 15 mL Falcon tube, centrifuged for 10 min at 4500 g, then the pellet is re-suspended in 1 mL of sterile distilled water. Suitable dilutions are then prepared in order to obtain a bacterial inoculum between 5·10^5 and 5·10^6 CFU/mL.
(§6) The MICs of the antibiotics were previously determined for each strain, by the method of microdilution in a liquid medium (CLSI (Clinical and Laboratory Standards Institute), 2003).
(§7) The same procedure is followed for the Cx1. […] Thus 64 ATB/Cx1 combinations are obtained.
(§8) The final volume contained in each of the wells must be 100 μL. Two controls must be present on each plate: • column 1 and 12: medium control • column 2 and 11: medium+bacteria control
(§9) Cx1: […] in the wells of […], starting with the lowest concentration.
(§10) ATB: 25 μL in the wells of rows H to A (columns 3 to 11), starting with the lowest concentration.
(§11) 50 μL in each of the wells of columns 2 to 11.
(§12) D2: Reading the Turbidity at 540 Nm.
(§13) The FIC (Fractional Inhibitory Concentration Index) value is determined by the following formula:
(§14) [formula] MICA in combination MICA alone MICB in combination MICB alone
(§15) When FIC≦0.5, there is a synergistic effect between antibiotic A and antibiotic B.
(§16) When 0.5<FIC≦1, there is an additive effect between antibiotic A and antibiotic B.
(§17) When 1<FIC≦4, there is an indifferent effect between antibiotic A and antibiotic B.
(§18) When FIC>4, there is an antagonistic effect between antibiotic A and antibiotic B.
(§19) For each strain and each antibiotic/Cx1 combination, the experiments were repeated a minimum of 3 times.

[3] = tested on: Pseudomonas aeruginosa strain having a resistance to β-lactams (including the carbapenems), aminoglycosides, the trimethoprim-sulphamethoxazole combination and …; test: as above; format: cell-based; conditions: antibiotic used alone; second figure of the cell; n = 4
Excerpt: as §3, §4, §5, §6, §7, §8, §9, §10, §11, §12, §13, §14, §15, §16, §17, §18, §19

[4] = tested on: Staphylococcus aureus strain ATCC 29213 (wild type); test: as above; format: cell-based; conditions: antibiotic used alone; second figure of the cell; n = 4
Excerpt: as §3, §4, §5, §6, §7, §8, §9, §10, §11, §12, §13, §14, §15, §16, §17, §18, §19

[5] = tested on: mucoid strain of Pseudomonas aeruginosa having a resistance to rifampicin and the trimethoprim-sulphamethoxazole combination (PaR5); test: as above; format: cell-based; conditions: antibiotic used alone; second figure of the cell; n = 4
Excerpt: as §3, §4, §5, §6, §7, §8, §9, §10, §11, §12, §13, §14, §15, §16, §17, §18, §19

[6] = tested on: Pseudomonas aeruginosa strain ATCC 27853 (wild type); test: as above; format: cell-based; conditions: antibiotic used alone; second figure of the cell; n = 4
Excerpt: as §3, §4, §5, §6, §7, §8, §9, §10, §11, §12, §13, §14, §15, §16, §17, §18, §19

[7] = tested on: EcR1: Penicillinase-Producing Escherichia coli without Associated Resistance; test: Antibiogram by the disk diffusion technique; format: cell-based; conditions: for Results (diameter): Table A1, category from diameter vs Dmin Dmax; for diameter in mm: Table A2, diameter
Experimental: as §1, §2

[8] = tested on: Pseudomonas aeruginosa strain having a resistance to β-lactams, the trimethoprim-sulphamethoxazole combination and fosfomycin (PaR2); format: cell-based; conditions: antibiotic used alone; second figure of the cell; n = 4
Excerpt: as §3, §4, §5, §6, §7, §8, §9, §10, §11, §12, §13, §14, §15, §16, §17, §18, §19

[9] = tested on: cephalosporinase-hyperproducing strain of Escherichia coli (EcR2); test: Chessboard technique: MICs alone and synergism of Cx1 combinations; format: cell-based; conditions: antibiotic used alone; second figure of the cell; n = 4
Excerpt: as §3, §4, §5, §6, §7, §8, §9, §10, §11, §12, §13, §14, §15, §16, §17, §18, §19

[10] = tested on: Escherichia coli strain ATCC 25922 (wild type); test: as above; format: cell-based; conditions: antibiotic used alone; second figure of the cell; n = 4
Excerpt: as §3, §4, §5, §6, §7, §8, §9, §10, §11, §12, §13, §14, §15, §16, §17, §18, §19

[11] = tested on: EcR2: Cephalosporinase-Hyperproducing Escherichia coli; test: Antibiogram by the disk diffusion technique; format: cell-based; conditions: Table B2; strain EcR2; diameters
Experimental: 5.2 EcR2: Cephalosporinase-Hyperproducing Escherichia coli Having an Associated Resistance to the Aminoglycosides, Quinolones and the Trimethoprim-Sulphamethoxazole Combination
The bacterial and antibiogram identification is carried out by the VITEK 1 system (bioMérieux) and by the disk diffusion technique

[12] = tested on: Escherichia coli, Staphylococcus aureus and Pseudomonas aeruginosa strains; test: Chessboard technique, summary over all strains and combinations tested; format: cell-based
Excerpt: as §3, §4
The FIC (Fractional Inhibitory Concentration Index) value is determined by the following formula: […]
as §19

[13] = tested on: MRSA strain having a resistance to the aminoglycosides and fluoroquinolones (SaR3); test: Chessboard technique: MICs alone and synergism of Cx1 combinations; format: cell-based, Staphylococcus aureus; conditions: antibiotic used alone; second figure of the cell; n = 4
Excerpt: as §3, §4, §5, §6, §7, §8, §9, §10, §11, §12, §13, §14, §15, §16, §17, §18, §19

[14] = tested on: MRSA strain without associated resistance (SaR1); test: as above; format: cell-based, Staphylococcus aureus; conditions: antibiotic used alone; second figure of the cell; n = 4
Excerpt: as §3, §4, §5, §6, §7, §8, §9, §10, §11, §12, §13, §14, §15, §16, §17, §18, §19

[15] = tested on: MRSA strain having a resistance to the aminoglycosides, fluoroquinolones, macrolides-lincosamides-synergistins and ofloxacin (SaR4); test: as above; format: cell-based, Staphylococcus aureus; conditions: antibiotic used alone; second figure of the cell; n = 4
Excerpt: as §3, §4, §5, §6, §7, §8, §9, §10, §11, §12, §13, §14, §15, §16, §17, §18, §19

NCC[C@H](O)C(=O)N[C@@H]1C[C@H](N)[C@@H](O[C@H]2O[C@H](CN)[C@@H](O)[C@H](O)[C@H]2O)[C@H](O)[C@H]1O[C@H]1O[C@H](CO)[C@@H](O)[C@H](N)[C@H]1O [Amikacin]
Results (MIC) [1]: Susceptible
Initial MICs (antibiotic) [2]: 1 mg/L
MIC (antibiotic) [3]: 1 mg/L
Initials MIC (antibiotic) [4]: 1 mg/L
MIC (antibiotic) [5]: 0.5 µg/mL
MIC (antibiotic) [6]: 0.5 µg/mL
Results (diameter) [7]: Susceptible
MIC (antibiotic) [8]: 1 µg/mL

CC1(C)S[C@@H]2[C@H](NC(=O)[C@H](N)c3ccc(O)cc3)C(=O)N2[C@H]1C(=O)O [Amoxicillin]
Results (MIC) [1]: Resistant
Initial MICs (antibiotic) [9]: 256 mg/L
Initial MICs (antibiotic) [10]: 4/4 mg/L
Results (diameter) [7]: Resistant

C[C@H]1[C@H](NC(=O)/C(=N\OC(C)(C)C(=O)O)c2csc(N)n2)C(=O)N1S(=O)(=O)O [Aztreonam]
Results (diameter) [7]: Susceptible
diameter in mm [7]: 28 mm

CC(=O)OCC1=C(C(=O)O)N2C(=O)[C@@H](NC(=O)Cc3cccs3)[C@H]2SC1 [C1G, Cefalotine]
Results (MIC) [1]: Susceptible
Results (diameter) [7]: Intermediate

CO/N=C(\C(=O)N[C@@H]1C(=O)N2C(C(=O)[O-])=C(C[N+]3(C)CCCC3)CS[C@H]12)c1csc(N)n1 [Cefepime]
Results (diameter) [7]: Susceptible
diameter in mm [7]: 27 mm

CO/N=C(\C(=O)N[C@@H]1C(=O)N2C(C(=O)O)=C(COC(C)=O)CS[C@H]12)c1csc(N)n1 [Cefotaxime]
Results (MIC) [1]: Susceptible
Initial MICs (antibiotic) [2]: 128 mg/L
Initial MICs (antibiotic) [9]: 4 mg/L
Results (diameter) [7]: Susceptible
diameter in mm [11]: 24 mm

CO[C@@]1(NC(=O)Cc2cccs2)C(=O)N2C(C(=O)O)=C(COC(N)=O)CS[C@@H]21 [Cefoxitin]
Results (MIC) [1]: Susceptible
Results (diameter) [7]: Susceptible
diameter in mm [11]: 11 mm

O=C(O)c1cn(C2CC2)c2cc(N3CCNCC3)c(F)cc2c1=O [Ciprofloxacin]
Results (diameter) [7]: Susceptible

C[C@@H]1O[C@@H]1P(=O)(O)O [Fosfomycin]
MIC (antibiotic) [3]: > 64 mg/L
Initials MIC (antibiotic) [4]: 8/8 mg/L
MIC (antibiotic) [5]: 16 µg/mL
MIC (antibiotic) [6]: 16 µg/mL
Results (diameter) [7]: Susceptible
diameter in mm [7]: 24 mm
MIC (antibiotic) [8]: 64 µg/mL
nature of the interaction between Cx1 and the antibiotic [12]: synergism
MIC (antibiotic) [13]: 16 µg/mL
MIC (antibiotic) [14]: 2 µg/mL
MIC (antibiotic) [15]: 128 µg/mL

CC(=O)O[C@H]1C[C@@]2(C)[C@@H](C[C@@H](O)[C@H]3[C@@]4(C)CC[C@@H](O)[C@@H](C)[C@@H]4CC[C@@]32C)/C1=C(\CCC=C(C)C)C(=O)O [Fusidic acid]
Initials MIC (antibiotic) [4]: 2 mg/L
nature of the interaction between Cx1 and the antibiotic [12]: synergism
MIC (antibiotic) [15]: 4 µg/mL

C[C@@H](O)[C@H]1C(=O)N2C(C(=O)O)=C(SCCN=CN)C[C@H]12 [Imipenem]
MIC (antibiotic) [3]: 32/32 mg/L
MIC (antibiotic) [5]: 2 µg/mL
MIC (antibiotic) [6]: 2 µg/mL
MIC (antibiotic) [8]: 2 µg/mL
MIC (antibiotic) [15]: 2 µg/mL
